# Experimental data: US10759790B2, “Heterocyclic constrained tricyclic sulfonamides as anti-cancer agents” (ICAHN SCHOOL OF MEDICINE AT MOUNT SINAI, priority 2015, dated 2020)
# What was measured:
# H1650 lung cancer cells = experiment: Cell viability assay (MTT, IC50 determination); assay type: cell-based; details: Homo sapiens, NCI-H1650; H1650 lung cancer cells, MTT, 48 hours after drug treatment; read-out: H1650 cell viability IC50
# Experimental: Cell viability assays were performed according to Denizot, F. and R. Lang, Journal of Immunological Methods, 1986. 89(22): p. 271-277. H1650 lung cancer cells were plated at 150,000 cells per well in a 12 well plate. Twenty-four hours after plating, cells were treated as described with increasing concentrations of drug and control. Forty-eight hours after drug treatment, cells were treated with 100 μL of 3-(4,5-Dimethylthiazol-2-yl)-2,5-diphenyltetrazolium bromide (MTT) and incubated for 2 hours at 37 C. The MTT solution was subsequently replaced with 300 μL of n-propyl alcohol and re-aliquoted to a 96 well plate. Spectrophotometric analysis of each solution was performed using a 96 well plate reader at 600 nm in triplicate.
# [1] = test system: lung cancer cell line H358; experiment: In vivo cancer model: subcutaneous H358 xenograft, tumor volume (Example 2a); set-up: species or system BALB/c nu/nu mice; details: 5 mg/kg BID oral gavage
# Experimental: (§1) To assess the in vivo effects of the compounds, subcutaneous xenograft of lung cancer cell line H358 was generated. Cells (5×10^6) were injected into the right flank of 6- to 8-week-old male BALB/c nu/nu mice (Charles River, Wilmington, Mass.). Tumor volume was assessed twice a week by caliper measurement. Mice were randomized to treatment groups based on initial tumor volume average of 200 mm^3 per group. Mice were dosed by oral gavage with 5 mg/kg Example 2a BID. Mouse tumors were measured twice a week for the duration of the study. Mouse body weights were recorded weekly and percentage of mice body weights during treatment was calculated as: weight at each time point/initial weight×100.
# [2] = In vivo cancer model: body weights and signs of toxicity (Example 2a); set-up: species or system BALB/c nu/nu mice; details: 5 mg/kg BID oral gavage
# Experimental: as §1
# H358 cell line = experiment: In vivo H358 xenograft model, tumor volume (Example 17b); set-up: species or system BALB/c nu/nu mice; details: 5 mg/kg BID oral gavage, treatment day 32
# Experimental: (§2) To evaluate the efficacy of Example 17b in vivo, xenograft model was utilized using the H358 cell line. H358 cells (1×10^7) were injected into the right flank of 6- to 8-week-old male BALB/c nu/nu mice. Mice were randomized to treatment groups based on initial tumor volume. Tumor volume was assessed twice a week by caliper measurement, until volumes reached an average of 200 mm^3. Mice were treated by oral gavage with vehicle control or Example 17b (5 mg/kg) BID. The treatment schedules were initiated, and the mouse tumors were measured every other day for the duration of the study. Mice body weights were recorded weekly and percentage of mice body weights during treatment was calculated as: weight at each time point/initial weight×100.
# [3] = In vivo H358 xenograft model: body weights and signs of toxicity (Example 17b); set-up: species or system BALB/c nu/nu mice; details: 5 mg/kg BID oral gavage
# Experimental: as §2
smiles,measurement,setting,value
"O=S(=O)(N[C@@H]1COC[C@H](N2c3ccccc3Oc3ccccc32)[C@H]1O)c1ccc(OC(F)(F)F)cc1 [Example 2a, N-((3R,4R,5S)-4-hydroxy-5-(10H-phenoxazin-10-yl)tetrahydro-2H-pyran-3-yl)-4-(trifluoromethoxy)benzenesulfonamide]",IC50,H1650 lung cancer cells,15 µM
same,% T/C (mean tumor volume),[1]; treatment day 17,28.82%
same,% T/C (median tumor volume),[1]; treatment day 17,25.82%
same,Inhibition of tumor growth versus vehicle control,[1]; treatment day 17,statistically significant inhibition of tumor (T) growth versus vehicle control (C)
same,Mean Tumor Volume (T),"[1]; treatment day 17, in mm³",208.64
same,Median Tumor Volume (T),"[1]; treatment day 17, in mm³",191.78
same,"Signs of toxicity (mucous diarrhea, abdominal stiffness and weight loss)",[2],no adverse signs were observed
same,Toxicity as judged from animal body weights versus vehicle control,[2],No statistically significant toxicity was observed
same,% T/C (mean body weight),[2]; H358 xenograft mice,96.36%
same,% T/C (median body weight),[2]; H358 xenograft mice,96.92%
same,Mean body weight,[2]; H358 xenograft mice,30.21 g
same,Median body weight,[2]; H358 xenograft mice,29.95 g
"O=S(=O)(N[C@H]1CNC[C@@H](N2c3ccccc3Oc3ccccc32)[C@@H]1O)c1ccc(OC(F)(F)F)cc1 [Example 17b, N-((3S,4S,5R)-4-hydroxy-5-(10H-phenoxazin-10-yl)piperidin-3-yl)-4-(trifluoromethoxy)benzenesulfonamide]",IC50,H1650 lung cancer cells,10 µM
same,% T/C (mean tumor volume),H358 cell line,55%
same,% T/C (median tumor volume),H358 cell line,54%
same,Inhibition of tumor growth versus vehicle control,H358 cell line,statistically significant inhibition of tumor (T) growth versus vehicle control (C)
same,Mean Tumor Volume (T),H358 cell line,562 mm^3
same,Median Tumor Volume (T),H358 cell line,520 mm^3
same,"Signs of toxicity (mucous diarrhea, abdominal stiffness and weight loss)",[3],no adverse signs were observed
same,Toxicity as judged from animal body weights versus vehicle control,[3],No statistically significant toxicity was observed
same,% T/C (mean body weight),[3]; H358 xenograft mice,100.5%
same,% T/C (median body weight),[3]; H358 xenograft mice,99.4%
same,Mean body weight,[3]; H358 xenograft mice,34.41 g
same,Median body weight,[3]; H358 xenograft mice,34.1 g
